≈ marks a conversion by molar mass, not a printed value. Square brackets hold non-standard residues; d marks the D form. Peptide text beside a SMILES is read from it. Lys(Me2) = CN(C)CCCC[C@H](N)C(=O)O; NMeT = CN[C@H](C(=O)O)[C@@H](C)O; NMeA = CN[C@@H](C)C(=O)O

Drawing on ChEMBL document CHEMBL6153018, “Macrocycles and macrocyclization in anticancer drug discovery: Important pieces of the puzzle” (Eur J Med Chem, 2024), this text covers Papp A→B and solubility for three compounds.

A short description of data set [1]: in vitro. Particulars: human, Caco-2.
A further data set is described as follows: physchem. Particulars: PBS buffer, pH 7.4.
Data set [2] is described as follows: in vitro. The conditions noted are these: dog, MDCK.

By Papp A→B is commonly meant the apparent permeability from the apical to the basolateral side of a cell layer. Low values mean poor permeation, high ones ready permeation. In the data set “in vitro [1]”, `C[C@@H]1NC(=O)[C@H](CCCCN)NC(=O)[C@H](Cc2ccccc2)NC(=O)[C@H](Cc2ccc(O)cc2)NC(=O)[C@H](CO)NC1=O` (cyclo(ASYFK)) showed an apparent permeability from apical to basolateral (Papp A→B) at 1 h of 0.83 ×10⁻⁶ cm/s.

The term solubility denotes the concentration that dissolves in the medium under given conditions. Read a high solubility as much dissolved substance. `CC(C)C[C@@H]1NC(=O)[C@H]([C@@H](C)O)N(C)C(=O)[C@H]2CCCN2C(=O)[C@H](CC(C)C)NC(=O)[C@H](C)N(C)C(=O)[C@H](CC(C)C)NC(=O)[C@H]([C@@H](C)O)N(C)C(=O)[C@H]2CCCN2C(=O)[C@H](CC(C)C)NC(=O)[C@H](C)N(C)C1=O` (cyclo(L[NMeA]L[dP][NMeT]L[NMeA]L[dP][NMeT])) registered a solubility in the data set “physchem” of 880 µM (≈ 922 µg/mL). The Papp A→B at 2 h in “in vitro [2]” was 0.593 ×10⁻⁶ cm/s.

Compound `COC[C@@H]1NC(=O)[C@H](CC(N)=O)NC(=O)[C@H](CCCCN(C)C)NC(=O)[C@H](Cc2ccccc2)NC(=O)[C@H](Cc2ccc(OC)cc2)NC1=O` (cyclo([Lys(Me2)]NS(Me)Y(Me)F)) returned an apical-to-basolateral permeability (Papp A→B) at 1 h in “in vitro [1]” of 5.55 ×10⁻⁶ cm/s.
